“And” between values parts separate entries of the source, which are not always exact repeats. Equal entries are not always repeated.
Legend:
[1] = test system: bacterial strain LF82 binding to the glycoprotein BSA-(Mannose)3; experiment: Bacterial Binding Assay (BBA); assay type: cell-based, Escherichia coli; conditions: read-out: Bacterial Binding Assay IC50, LF82/Luciferase strain binding to BSA-(Man)3 coated plates, luminescence
How it was run: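 Inhibition of LF82/luciferase E. coli adhesion is read as luminescence after washing off unbound cells. Compound and bacteria (10^7 per well) are co-incubated 40-75 min at room temperature on wells coated with 0.5-2 μg/mL BSA-(Man)3, with BSA-only wells as background; IC50 values derived.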

FimH-CRD [2] = molecular target: T1, FimH-CRD (Escherichia coli, UniProt P08191); experiment: Competitive binding assay by fluorescence polarization, assay 1 (compounds prepared by manual dilution); set-up: species or system E. coli
T1 construct: The first 177 amino acids of the FimH protein are expressed as a fusion protein; thrombin tag (printed as 'fusion protein with thrombin') (cleaved yes); made in house; host or cells: bacteria (pET21b plasmid)
T1 sequence (P08191 22-177): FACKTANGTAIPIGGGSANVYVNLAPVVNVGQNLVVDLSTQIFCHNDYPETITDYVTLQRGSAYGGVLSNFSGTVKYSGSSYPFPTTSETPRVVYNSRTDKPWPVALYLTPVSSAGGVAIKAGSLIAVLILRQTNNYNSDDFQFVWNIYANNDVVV
How it was run: (§1)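 FimH-CRD (residues 1-177, tag removed) at 60 nM competed against 5 nM Alexa 647 mannoside probe in 50 mM Tris-Cl pH 7.0, 100 mM NaCl, 1 mM EDTA, 5 mM β-mercaptoethanol, 0.05% BSA, 2.5% DMSO; 5 h, room temperature, dark. Compounds 0.4 nM-75 μM final, 12-point 3-fold, duplicate; Kd from fluorescence polarization displacement curves. Assay 1: manual dilution; assay 2: robotic dilution, plates frozen/thawed.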

FimH-CRD [3] = molecular target: T1, FimH-CRD; experiment: Competitive binding assay by fluorescence polarization, assay 2 (compounds prepared by a robotics system, plates frozen and thawed); set-up: species or system E. coli; conditions: Assay 2 Kd, 5 nM Alexa 647 mannoside probe, 60 nM FimH-CRD, replicate values in one cell
How it was run: as §1

[4] = Assay 1 Kd, 5 nM Alexa 647 mannoside probe, 60 nM FimH-CRD, replicate values in one cell

With `OC[C@H]1O[C@H](CCc2ccc(CC[C@H]3O[C@H](CO)[C@@H](O)[C@H](O)[C@@H]3O)cc2)[C@@H](O)[C@@H](O)[C@@H]1O` [Compound 22, ((2R,3S,4R,5S,6R)-2-(Hydroxymethyl)-6-[2-[4-[2-[(2R,3S,4R,5S,6R)-3,4,5-trihydroxy-6-(hydroxymethyl)tetrahydropyran-2-yl]ethyl]phenyl]ethyl]tetrahydropyran-3,4,5-triol)] the IC50 [1] was 1600 nM, the Kd (FimH-CRD [2]; [4]) was < 5 nM and 12 nM and the Kd (FimH-CRD [3]) was 14 nM and < 5 nM and 11 nM.

With `OC[C@H]1O[C@H](CCCc2ccc(CCC[C@H]3O[C@H](CO)[C@@H](O)[C@H](O)[C@@H]3O)cc2)[C@@H](O)[C@@H](O)[C@@H]1O` [Compound 38, (2R,3S,4R,5S,6R)-2-(hydroxymethyl)-6-[3-[4-[3-[(2R,3S,4R,5S,6R)-3,4,5-trihydroxy-6-(hydroxymethyl)tetrahydropyran-2-yl]propyl]phenyl]propyl]tetrahydropyran-3,4,5-triol] the IC50 [1] was 410 nM, the Kd (FimH-CRD [2]; [4]) was less than 5 nM and the Kd (FimH-CRD [2]; read-out: Assay 1 Kd, 5 nM Alexa 647 mannoside probe, 60 nM FimH-CRD, replicate values in one cell) was less than 5 nM. For the same molecule, the Kd (FimH-CRD [3]) was < 5 nM (2×) and 21 nM.

`O=C(NCCCCCCCCNC(=O)c1cccc([C@H]2O[C@H](CO)[C@@H](O)[C@H](O)[C@@H]2O)c1)c1cccc([C@H]2O[C@H](CO)[C@@H](O)[C@H](O)[C@@H]2O)c1` [Compound 14, (R,R,S,R,S)-N,N′-(Octane-1,8-diyl)bis(3-((2R,3S,4R,5S,6R)-3,4,5-trihydroxy-6-(hydroxymethyl)tetrahydro-2H-pyran-2-yl)benzamide)] was tested, and the IC50 [1] was 4100 nM, the Kd (FimH-CRD [2]; [4]) was 11 nM and 13 nM and the Kd (FimH-CRD [3]) was 43 nM and 6 nM and 14 nM.

With `OC[C@H]1O[C@H](c2ccc([C@H]3O[C@H](CO)[C@@H](O)[C@H](O)[C@@H]3O)cc2)[C@@H](O)[C@@H](O)[C@@H]1O` [Compound 1, (2R,3S,4R,5S,6R)-2-(Hydroxymethyl)-6-[4-[(2R,3S,4R,5S,6R)-3,4,5-trihydroxy-6 (hydroxymethyl)tetrahydropyran-2-yl]phenyl]tetrahydropyran-3,4,5-triol] the IC50 [1] was 5270 nM, the Kd (FimH-CRD [2]; [4]) was < 5 nM (2×) and 8 nM and the Kd (FimH-CRD [3]) was 13 nM and 8 nM.

For `O=C(Nc1ccc(Cc2ccc(NC(=O)c3cccc([C@H]4O[C@H](CO)[C@@H](O)[C@H](O)[C@@H]4O)c3)cc2)cc1)c1cccc([C@H]2O[C@H](CO)[C@@H](O)[C@H](O)[C@@H]2O)c1` [Compound 16], the IC50 [1] was 1510 nM, the Kd (FimH-CRD [2]; [4]) was < 5 nM and 6 nM and the Kd (FimH-CRD [3]) was 26 nM and < 5 nM and 9 nM.

In the case of `OC[C@H]1O[C@H](CCCC[C@H]2O[C@H](CO)[C@@H](O)[C@H](O)[C@@H]2O)[C@@H](O)[C@@H](O)[C@@H]1O` [Compound 23], the IC50 [1] is reported as 5800 nM, the Kd (FimH-CRD [2]; [4]) is reported as 9 nM and 12 nM and the Kd (FimH-CRD [3]) is reported as 25 nM and < 5 nM and 14 nM.
